Like-named read-outs stand apart in the source and are kept apart here.
Tests used:
GRPR = biological target: T1, GRPR (Homo sapiens, UniProt P30550); assay: Fluorometric intracellular calcium release assay using PC-3 cells; assay type: cell-based; conditions: for intracellular calcium release: 50 nM ligand, n = 4
T1 construct: host or cells: PC-3 cells
Protocol: The agonist/antagonist characteristics of LW02060, Ga-LW02060, Lu-LW02060, LW02080, Ga-LW02080, and Lu-LW02080 were determined following published procedures. The PC-3 cells were obtained from ATCC (via Cedarlane, Burlington, ON, Canada). A 96-well clear bottom black plate was seeded with 5 × 10^4 PC-3 cells in 100 μL growth media per well 24 h before the assay. The loading buffer (100 μL/well) containing a calcium-sensitive dye (FLIPR Calcium 6 assay kit from Molecular Devices, San Jose, CA, USA) was added into the 96-well plate, followed by 1 h incubation at 37 °C. The plate was then transferred into a FlexStation 3 microplate reader (Molecular Devices, San Jose, CA, USA). LW02060 (50 nM), Ga-LW02060 (50 nM), Lu-LW02060 (50 nM), LW02080 (50 nM), Ga-LW02080 (50 nM), Lu-LW02080 (50 nM), [D-Phe^6,Leu-NHEt^13,des-Met^14]Bombesin(6–14) (50 nM, antagonist control), bombesin (50 nM, agonist control), adenosine triphosphate (ATP, 50 nM, positive control), or DPBS (blank control) was added, and the fluorescent signals were measured for 2 min (λEx = 485 nm; λEm = 525 nm; n = 4). The relative fluorescent units (RFU = max − min) were calculated to determine the agonistic/antagonistic characteristics of LW02060, Ga-LW02060, Lu-LW02060, LW02080, Ga-LW02080, and Lu-LW02080, respectively.

[1] = Ex vivo biodistribution of 68Ga-labeled tracers in PC-3 tumor-bearing mice; conditions: mouse, 1 h pi; for tissue to tissue ratio at 1 h: male, NOD.Cg-Rag1^tm1Mom Il2rg^tm1Wjl/SzJ (NRG), iv, total radioactivity; for tissue uptake at 1 h: intravenous
Protocol: PET/CT imaging and biodistribution studies were conducted using male NOD.Cg-Rag1^tm1Mom Il2rg^tm1Wjl/SzJ (NRG) mice following previously published procedures. The studies were carried out in compliance with the guidelines established by the Canadian Council on Animal Care and approved by Animal Ethics Committee of the University of British Columbia (protocol number A20-0113, approved on 30 September 2022). The mice were anaesthetized and subcutaneously implanted with 5 × 10^6 PC-3 cells (100 µL; 1:1 PBS/Matrigel) behind the left shoulder. PET/CT imaging and biodistribution studies were performed once the tumors reached a diameter of 5–8 mm, typically after approximately 4 weeks of growth.
For ex vivo biodistribution studies, the mice were injected with the ^68Ga-labeled tracer (2–4 MBq) via a lateral caudal tail vein. For blocking [^68Ga]Ga-LW02060, the mice were co-injected with 100 μg of [D-Phe^6,Leu-NHEt^13,des-Met^14]Bombesin(6–14). For blocking [^68Ga]Ga-LW02080, the mice were co-injected with 100 μg of its nonradioactive standard Ga-LW02080. At 1 h pi, the mice were euthanized by CO2 inhalation. Blood and organs/tissues of interest were collected, weighed, and counted using a gamma counter.

T1 sequence (P30550 whole entry): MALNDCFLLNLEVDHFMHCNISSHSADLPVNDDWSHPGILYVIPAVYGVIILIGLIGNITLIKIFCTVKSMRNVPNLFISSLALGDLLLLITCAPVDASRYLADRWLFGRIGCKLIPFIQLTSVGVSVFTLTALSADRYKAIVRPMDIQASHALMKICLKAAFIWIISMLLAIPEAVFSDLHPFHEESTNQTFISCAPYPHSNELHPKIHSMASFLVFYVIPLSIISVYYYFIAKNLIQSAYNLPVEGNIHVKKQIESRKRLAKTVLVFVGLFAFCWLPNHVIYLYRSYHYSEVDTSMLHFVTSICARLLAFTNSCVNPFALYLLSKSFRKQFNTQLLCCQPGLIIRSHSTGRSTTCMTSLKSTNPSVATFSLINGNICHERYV

In the case of “DOTA-Pip-[D-Phe^6,NMe-Gly^11,Leu^13(ψ)diF-Pro^14]Bombesin(6–14) [LW02080]”, the agonist/antagonist characteristics (GRPR) is reported as “GRPR antagonists” and the intracellular calcium release (GRPR) is reported as 11.4 ± 0.32 RFU.
In the case of `Nc1ncnc2c1ncn2[C@@H]1O[C@H](COP(=O)(O)OP(=O)(O)OP(=O)(O)O)[C@@H](O)[C@H]1O` [ATP, adenosine triphosphate, reference compound], the intracellular calcium release (GRPR) is reported as 286 ± 9.44 RFU.
`CC(C)C[C@H](NC(=O)[C@H](Cc1cnc[nH]1)N(C)C(=O)CNC(=O)[C@@H](NC(=O)[C@H](C)NC(=O)[C@H](Cc1c[nH]c2ccccc12)NC(=O)[C@H](CCC(N)=O)NC(=O)[C@@H](Cc1ccccc1)NC(=O)CN1CCC(NC(=O)CN2CCN(CC(=O)O)CCN(CC(=O)O)CCN(CC(=O)O)CC2)CC1)C(C)(C)C)C(=O)N1CC(F)(F)C[C@H]1C(N)=O` [[^68Ga]Ga-LW02060, metal not drawn] gave a tissue to tissue ratio at 1 h ([1]; tumor/blood, blocked (100 µg blocking agent co-injected), read-out: Tumor/blood uptake ratio) of 3.72 ± 0.74, a tissue to tissue ratio at 1 h ([1]; tumor/blood, n = 4, read-out: Tumor/blood uptake ratio) of 29.1 ± 3.62 and a tissue to tissue ratio at 1 h ([1]; tumor/bone, blocked (100 µg blocking agent co-injected), read-out: Tumor/bone uptake ratio) of 22.3 ± 8.24. For the same compound, the tissue to tissue ratio at 1 h ([1]; tumor/bone, n = 4, read-out: Tumor/bone uptake ratio) was 179 ± 46.9, the tissue to tissue ratio at 1 h ([1]; tumor/kidney, blocked (100 µg blocking agent co-injected), read-out: Tumor/kidney uptake ratio) was 0.54 ± 0.03 and the tissue to tissue ratio at 1 h ([1]; tumor/kidney, n = 4, read-out: Tumor/kidney uptake ratio) was 4.86 ± 0.76. For the same compound, the tissue to tissue ratio at 1 h ([1]; tumor/muscle, blocked (100 µg blocking agent co-injected), read-out: Tumor/muscle uptake ratio) was 17.7 ± 3.85, the tissue to tissue ratio at 1 h ([1]; tumor/muscle, n = 4, read-out: Tumor/muscle uptake ratio) was 141 ± 19 and the tissue to tissue ratio at 1 h ([1]; tumor/pancreas, blocked (100 µg blocking agent co-injected), read-out: Tumor/pancreas uptake ratio) was 2.87 ± 0.84. For the same compound, the tissue to tissue ratio at 1 h ([1]; tumor/pancreas, n = 4, read-out: Tumor/pancreas uptake ratio) was 5.52 ± 0.78, the tissue uptake at 1 h ([1]; PC-3 tumor, 100 ug, blocked (100 µg blocking agent co-injected), read-out: PC-3 tumor uptake) was 6.11 ± 0.42 %ID/g and the tissue uptake at 1 h ([1]; PC-3 tumor, n = 4, read-out: PC-3 tumor uptake) was 16.8 ± 2.7 %ID/g. It also gave a tissue uptake at 1 h ([1]; adrenal glands, 100 ug, blocked (100 µg blocking agent co-injected), read-out: Adrenal glands uptake) of 0.67 ± 0.03 %ID/g, a tissue uptake at 1 h ([1]; adrenal glands, n = 4, read-out: Adrenal glands uptake) of 0.66 ± 0.16 %ID/g and a tissue uptake at 1 h ([1]; blood, 100 ug, blocked (100 µg blocking agent co-injected), read-out: Blood uptake) of 1.71 ± 0.44 %ID/g. It also gave a tissue uptake at 1 h ([1]; blood, n = 4, read-out: Blood uptake) of 0.54 ± 0.03 %ID/g, a tissue uptake at 1 h ([1]; bone, 100 ug, blocked (100 µg blocking agent co-injected), read-out: Bone uptake) of 0.29 ± 0.07 %ID/g and a tissue uptake at 1 h ([1]; bone, n = 4, read-out: Bone uptake) of 0.1 ± 0.04 %ID/g. For the same compound, the tissue uptake at 1 h ([1]; brain, 100 ug, blocked (100 µg blocking agent co-injected), read-out: Brain uptake) was 0.05 ± 0.01 %ID/g, the tissue uptake at 1 h ([1]; brain, n = 4, read-out: Brain uptake) was 0.02 ± 0.01 %ID/g and the tissue uptake at 1 h ([1]; fat, 100 ug, blocked (100 µg blocking agent co-injected), read-out: Fat uptake) was 0.27 ± 0.1 %ID/g. The tissue uptake at 1 h ([1]; fat, n = 4, read-out: Fat uptake) was 0.05 ± 0.02 %ID/g, the tissue uptake at 1 h ([1]; heart, 100 ug, blocked (100 µg blocking agent co-injected), read-out: Heart uptake) was 0.52 ± 0.14 %ID/g and the tissue uptake at 1 h ([1]; heart, n = 4, read-out: Heart uptake) was 0.2 ± 0.05 %ID/g. It also gave a tissue uptake at 1 h ([1]; kidneys, 100 ug, blocked (100 µg blocking agent co-injected), read-out: Kidneys uptake) of 11.3 ± 0.97 %ID/g, a tissue uptake at 1 h ([1]; kidneys, n = 4, read-out: Kidneys uptake) of 3.58 ± 1.14 %ID/g and a tissue uptake at 1 h ([1]; large intestine, 100 ug, blocked (100 µg blocking agent co-injected), read-out: Large intestine uptake) of 0.54 ± 0.13 %ID/g. For the same compound, the tissue uptake at 1 h ([1]; large intestine, n = 4, read-out: Large intestine uptake) was 0.61 ± 0.1 %ID/g, the tissue uptake at 1 h ([1]; liver, 100 ug, blocked (100 µg blocking agent co-injected), read-out: Liver uptake) was 1.11 ± 0.43 %ID/g and the tissue uptake at 1 h ([1]; liver, n = 4, read-out: Liver uptake) was 0.37 ± 0.08 %ID/g. It also gave a tissue uptake at 1 h ([1]; lungs, 100 ug, blocked (100 µg blocking agent co-injected), read-out: Lungs uptake) of 1.52 ± 0.39 %ID/g, a tissue uptake at 1 h ([1]; lungs, n = 4, read-out: Lungs uptake) of 0.61 ± 0.15 %ID/g and a tissue uptake at 1 h ([1]; muscle, 100 ug, blocked (100 µg blocking agent co-injected), read-out: Muscle uptake) of 0.35 ± 0.08 %ID/g. The tissue uptake at 1 h ([1]; muscle, n = 4, read-out: Muscle uptake) was 0.12 ± 0.03 %ID/g, the tissue uptake at 1 h ([1]; pancreas, 100 ug, blocked (100 µg blocking agent co-injected), read-out: Pancreas uptake) was 2.25 ± 0.59 %ID/g and the tissue uptake at 1 h ([1]; pancreas, n = 4, read-out: Pancreas uptake) was 3.12 ± 0.89 %ID/g. For the same compound, the tissue uptake at 1 h ([1]; small intestine, 100 ug, blocked (100 µg blocking agent co-injected), read-out: Small intestine uptake) was 0.72 ± 0.02 %ID/g, the tissue uptake at 1 h ([1]; small intestine, n = 4, read-out: Small intestine uptake) was 0.96 ± 0.2 %ID/g and the tissue uptake at 1 h ([1]; spleen, 100 ug, blocked (100 µg blocking agent co-injected), read-out: Spleen uptake) was 0.53 ± 0.15 %ID/g. The tissue uptake at 1 h ([1]; spleen, n = 4, read-out: Spleen uptake) was 0.24 ± 0.1 %ID/g, the tissue uptake at 1 h ([1]; stomach, 100 ug, blocked (100 µg blocking agent co-injected), read-out: Stomach uptake) was 0.38 ± 0.06 %ID/g and the tissue uptake at 1 h ([1]; stomach, n = 4, read-out: Stomach uptake) was 0.77 ± 0.29 %ID/g. The tissue uptake at 1 h ([1]; testes, 100 ug, blocked (100 µg blocking agent co-injected), read-out: Testes uptake) was 0.76 ± 0.29 %ID/g and the tissue uptake at 1 h ([1]; testes, n = 4, read-out: Testes uptake) was 0.2 ± 0.06 %ID/g.

Reference: article PMC11859184, “Synthesis and Evaluation of ^68Ga- and ^177Lu-Labeled [diF-Pro^14]Bombesin(6−14) Analogs for Detection and Radioligand Therapy of Gastrin-Releasing Peptide Receptor-Expressing Cancer” (Pharmaceuticals, 2025)
